# Laboratory results: ChEMBL document CHEMBL5260795, “Antifungal potential of marine natural products” (Eur J Med Chem, 2017)
# Where a SMILES comes first, the peptide text is derived from it. The star is where a group is joined. Tridecanoyl(3R-OH,11-Me) = CCC(C)CCCCCCC[C@@H](O)CC(=O)*; X1 = CCC(C)CC(C)CCCCC[C@@H](O)CC(=O)*
# Legend:
# [1] = system: Aspergillus niger; test: Antimicrobial activity against Aspergillus niger incubated for 72 hrs by standard broth dilution method; format: functional
# [2] = system: Botrytis cinerea; test: Antimicrobial activity against Botrytis cinerea incubated for 72 hrs by standard broth dilution method; format: functional
# [3] = system: Colletotrichum acutatum; test: Antimicrobial activity against Colletotrichum acutatum incubated for 72 hrs by standard broth dilution method; format: functional
# [4] = system: Rhizoctonia solani; test: Antimicrobial activity against Rhizoctonia solani incubated for 72 hrs by standard broth dilution method; format: functional
# [5] = system: Candida albicans; test: Antimicrobial activity against Candida albicans incubated for 72 hrs by standard broth dilution method; format: functional
# [6] = system: Saccharomyces cerevisiae; test: Antimicrobial activity against Saccharomyces cerevisiae incubated for 72 hrs by standard broth dilution method; format: functional
# [7] = system: Colletotrichum gloeosporioides; test: Antifungal activity against Colletotrichum gloeosporioides; format: functional
# [8] = system: Candida albicans; test: Antifungal activity against Candida albicans; format: functional, organism-based
# [9] = system: Candida albicans; test: Antifungal activity against wild type Candida albicans; format: functional, organism-based
# [10] = system: Candida albicans; test: Antimicrobial activity against Candida albicans assessed as reduction of microbial microbial growth; format: functional
# [11] = system: Rhizoctonia solani; test: Antifungal activity against Rhizoctonia solani incubated for 48 hrs by standard broth dilution method; format: functional
# [12] = system: Phytophthora capsici; test: Antifungal activity against Phytophthora capsici incubated for 48 hrs by standard broth dilution method; format: functional
# [13] = system: Botrytis cinerea; test: Antifungal activity against Botrytis cinerea incubated for 48 hrs by standard broth dilution method; format: functional
# [14] = system: Colletotrichum acutatum; test: Antifungal activity against Colletotrichum acutatum incubated for 48 hrs by standard broth dilution method; format: functional
# [15] = system: Saccharomyces cerevisiae; test: Antifungal activity against Saccharomyces cerevisiae; format: functional
# [16] = system: Candida albicans; test: Antifungal activity against Candida albicans ATCC 24433; format: functional
# [17] = system: Aspergillus niger; test: Antifungal activity against Aspergillus niger; format: functional
# [18] = system: Rhizoctonia solani; test: Antifungal activity against Rhizoctonia solani; format: functional
# [19] = system: Botrytis cinerea; test: Antifungal activity against Botrytis cinerea; format: functional
# [20] = system: Colletotrichum acutatum; test: Antifungal activity against Colletotrichum acutatum; format: functional
# [21] = Inhibition of Candida albicans CaCdr1p transporter assessed as reduction in rhodamine 6G efflux
# [22] = Inhibition of Candida albicans CaCdr1p transporter ATPase activity
# [23] = system: Gaeumannomyces graminis; test: Antimicrobial activity against Gaeumannomyces graminis; format: functional
compound,measurement,setting,value
C[C@@H]1CCC/C=C/CCC(=O)C[C@@H](O)C/C=C\C=C\[C@@H](O)C/C=C/C=C\C(=O)O1 [MACROLACTIN F],MIC,[1],0.02 µg/mL
same,MIC,[2],0.02 µg/mL
same,MIC,[3],0.02 µg/mL
same,MIC,[4],0.02 µg/mL
same,MIC,[5],0.02 µg/mL
same,MIC,[6],0.02 µg/mL
CC1=CC[C@]23C[C@H]1C[C@@](C)(O)[C@H]2[C@H](O)C[C@@H]3C,MIC,[7],1 µg/mL
CC(C)[C@@H](C)[C@@H]1O[C@@H]1[C@@H](C)[C@H]1[C@@H](O)C[C@]2(O)C3=CC=C4C[C@@H](O)CC[C@]4(C)C3[C@H](O)C(=O)[C@]12C (stereo not given in full),MIC,[8],1.56 µg/mL
CO[C@H]1/C=C/C=C/CCC[C@@H](C)OC(=O)/C=C\C=C\C[C@H](O[C@@H]2O[C@@H](CO)[C@@H](O)[C@H](O)[C@H]2O)/C=C/C=C\C[C@H](O)C1,MIC,[1],0.02 µg/mL
same,MIC,[2],0.02 µg/mL
same,MIC,[3],0.02 µg/mL
same,MIC,[4],0.02 µg/mL
same,MIC,[5],0.02 µg/mL
same,MIC,[6],0.02 µg/mL
C/C(Cl)=C/C=C/C=C/C=C/C=C/C(O)=C1\C(=O)C(CC(N)=O)N([C@@H]2OC[C@@H](O)[C@H](O)[C@H]2O[C@H]2OC[C@H](O[C@H]3O[C@@H](C)[C@H](O)[C@@H]3O)[C@H](O)[C@H]2O)C1=O (stereo not given in full),MIC,[9],1.95 µg/mL
C[C@@H]1CCCCC/C=C/[C@H](O)C[C@@H](O)C/C=C\C=C\[C@@H](O)C/C=C/C=C\C(=O)O1,MIC,[1],0.02 µg/mL
same,MIC,[2],0.02 µg/mL
same,MIC,[3],0.02 µg/mL
same,MIC,[4],0.02 µg/mL
same,MIC,[5],0.02 µg/mL
same,MIC,[6],0.02 µg/mL
C[C@@H]1CCCCC/C=C/[C@H](O)C[C@@H](O)C/C=C\C=C\[C@@H](O[C@@H]2O[C@@H](CO)[C@H](O)[C@@H](O)[C@@H]2O)C/C=C/C=C\C(=O)O1,MIC,[1],0.02 µg/mL
same,MIC,[2],0.02 µg/mL
same,MIC,[3],0.02 µg/mL
same,MIC,[4],0.02 µg/mL
same,MIC,[5],0.02 µg/mL
same,MIC,[6],0.02 µg/mL
C=C[C@@](C)(CC/C=C(\C)CC[C@]1(C)C(C=O)=CCC[C@H]1C)S(=O)(=O)CCNC(=N)N,MIC,[10],4 µg/mL
CCC(C)CC(C)CCCCC[C@@H](O)CC(=O)N[C@@H](CC(C)C)C(=O)N[C@@H](CCC(=O)O)C(=O)N[C@@H](CC(C)C)C(=O)N[C@@H](CC(C)C)C(=O)O (stereo not given in full) (X1-LELL-OH),MIC,[11],0.01 µg/mL
same,MIC,[12],0.01 µg/mL
same,MIC,[13],0.01 µg/mL
same,MIC,[14],0.01 µg/mL
C[C@@H]1CCC/C=C/[C@@H]2O[C@](O)(C[C@@H](O)C/C=C\C=C\C(O[C@@H]3O[C@H](CO)[C@@H](O)[C@H](O)[C@H]3O)C/C=C/C=C\C(=O)O1)[C@H]2O (stereo not given in full),MIC,[15],0.22 µg/mL
CC(C)C[C@@H](C)[C@@H](O)[C@@H](C)C(=O)N[C@H](C)C(=O)N[C@@H](CCCNC(=N)N)[C@@H](O)[C@@H](O)C(=O)N[C@@H](C(=O)N[C@@H](C(=O)O)[C@@H](C)O)[C@@H](C)CC(N)=O,MIC,[16],0.07 µg/mL
CCCCCCCCCCCCCCC(=O)OCC(O)CO[C@@H]1O[C@H](CO[C@@H]2C[C@H](CO)[C@@H](O)[C@H](O)[C@H]2O)[C@@H](O)[C@H](O)[C@H]1O (stereo not given in full),MIC,[17],0.02 µg/mL
same,MIC,[18],0.02 µg/mL
same,MIC,[19],0.02 µg/mL
same,MIC,[20],0.02 µg/mL
same,MIC,[8],0.02 µg/mL
CCC[C@@H]1CC(=O)N[C@@H](CC(C)C)C(=O)N[C@H](Cc2ccccc2)C(=O)N[C@@H](CC(C)C)C(=O)N[C@@H](Cc2ccccc2)C(=O)O1,IC50,[21],2.29 µg/mL
same,IC50,[22],0.31 µg/mL
CS[C@@]12CC3=CC=C[C@H](O)[C@H]3N1C(=O)[C@@H]1C[C@@H]3C(=O)CC[C@@H](O)[C@@H]3N1C2=O,MIC,[23],0.25 µg/mL
Cc1ccc(CC2CCC(=O)N2)c(C)c1 (stereo not given),MIC,[17],1 µg/mL
CS[C@@]12C[C@@H]3C(=O)CC[C@H](O)[C@@H]3N1C(=O)[C@]1(SC)C[C@H]3C(=O)CC[C@@H](O)[C@@H]3N1C2=O,MIC,[23],0.25 µg/mL
"CCC(C)CCCCCCC[C@@H](O)CC(=O)N[C@@H](CC(C)C)C(=O)N[C@@H](CCC(=O)O)C(=O)N[C@@H](CC(C)C)C(=O)N[C@@H](CC(C)C)C(=O)O (stereo partly drawn) ({Tridecanoyl(3R-OH,11-Me)}-LELL-OH)",MIC,[11],0.01 µg/mL
same,MIC,[12],0.01 µg/mL
same,MIC,[13],0.01 µg/mL
same,MIC,[14],0.01 µg/mL
C/C=C(\NC(=O)[C@@H](NC(=O)[C@H](O)[C@H](O)[C@H](CCCNC(=N)N)NC(=O)[C@@H](C)NC(=O)[C@H](C)[C@H](O)[C@H](C)CC(C)C)[C@@H](C)[C@@H](C)C(N)=O)C(=O)N[C@@H](C(=O)N[C@H](CCCNC(=N)N)C(=O)N[C@@H](CC(C)C)C(=O)N(C)[C@@H](CCC(N)=O)C(=O)N[C@@H](C(=O)N(C)[C@@H](C)C(=O)O)[C@H](OC)c1ccc(O)cc1)[C@@H](C)O,MIC,[8],0.1 µg/mL
CC1=CCC[C@H](C)[C@@]1(C)CC/C(C)=C/CC/C(C)=C/CS(=O)(=O)CCNC(=N)N,MIC,[10],0.5 µg/mL
